Experiments:
[1] = tested on: dorsal root ganglion explants; test: Axonal Wallerian degeneration assay in mouse DRG explant culture; type: cell-based, C57BL/6 male mice; conditions: 10 µM test compound, 2 hours pretreatment, axons transected, images at 0 hour and 24 hours
Excerpt: The experimental method was based on Gerdts J et al. (Gerdts J, Sasaki Y, Vohra B, Marasa J, Milbrandt J. Image-based screening identifies novel roles for IkappaB kinase and glycogen synthase kinase 3 in axonal degeneration. J Biol Chem. 2011 Aug 12;286(32):28011-8).
Dorsal root ganglia were dissected from 2-month-old C57BL/6 male mice and placed in 35 mm culture dishes containing pre-cooled HBSS buffer. Excess tissue from each dorsal root ganglion was removed and cut into 2-3 explants using a scalpel, and the explants were planted in wells of a 96-well plate coated with 100 ng/mL Matrigel (Corning). 100 µL of DRG culture medium (Neurobasal medium (Gibco) containing 2% B-27 (Gibco), 1% GlutaMax (Gibco), and 10 ng/mL NGF (MCE)) was added, then cultured in a 37°C incubator for one week, with medium change on day 4, and experiments were performed on day 8.
0.1 µL of 10 mM test compound was dissolved in 100 µL DRG culture medium to prepare new culture medium containing 10 µM test compound. The culture medium in the 96-well plate was aspirated and new culture medium containing the test compound was added. Then the dorsal root ganglion explants were incubated with the medium in a 37°C incubator for 2 hours for pre-protection. After 2-hour pretreatment, a glass electrode was used to transect axons in the area near the tissue block, and bright-field images of axons in the same area were captured at 0 hour and 24 hours post axonal degeneration using a 20x objective lens of a microscope (Olympus). Axonal integrity was evaluated using an in-house developed script.

[2] = target: T1, SARM1 (Homo sapiens, UniProt Q6SZW1); test: In vitro biochemical assay for inhibiting SARM1 enzyme activity (PC6 fluorescence, NADase); conditions: full-length SARM1 from transfected HEK293 cells; 50 µM NAD, 50 µM PC6, 50 µM NMN activator; room temperature, 30 minutes; read-out: IC50
T1 construct: inventors produced full-length SARM1 for NAD enzyme activity experiments, and used it for screening; His (C); made in house; host or cells: HEK293 cells, transient transfection; supernatant of digitonin lysate, no further purification described
T1 sequence (Q6SZW1 28-724): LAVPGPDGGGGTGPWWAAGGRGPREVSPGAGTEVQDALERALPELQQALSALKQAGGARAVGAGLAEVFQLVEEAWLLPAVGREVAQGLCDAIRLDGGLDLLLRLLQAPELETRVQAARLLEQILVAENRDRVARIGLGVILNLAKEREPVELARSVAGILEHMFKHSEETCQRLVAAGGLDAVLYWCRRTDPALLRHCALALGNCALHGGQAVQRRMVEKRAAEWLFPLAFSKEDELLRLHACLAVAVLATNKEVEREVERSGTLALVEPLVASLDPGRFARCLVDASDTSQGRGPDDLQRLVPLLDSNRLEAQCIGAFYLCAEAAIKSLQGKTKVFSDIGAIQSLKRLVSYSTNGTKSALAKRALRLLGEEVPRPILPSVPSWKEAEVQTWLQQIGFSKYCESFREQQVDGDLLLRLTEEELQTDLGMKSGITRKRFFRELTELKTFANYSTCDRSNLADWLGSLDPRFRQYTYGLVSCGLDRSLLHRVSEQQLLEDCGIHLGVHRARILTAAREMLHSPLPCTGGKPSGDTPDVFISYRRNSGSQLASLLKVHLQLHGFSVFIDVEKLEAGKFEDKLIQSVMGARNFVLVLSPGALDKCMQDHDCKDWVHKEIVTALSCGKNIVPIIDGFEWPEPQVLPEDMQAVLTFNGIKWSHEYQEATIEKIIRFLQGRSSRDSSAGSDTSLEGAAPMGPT
Experimental: The gene sequence of SARM1 protein was amplified using PCR, and the PCR amplification product was constructed into pcDNA3.1-HIS-C plasmid. The above construction was completed by YouBio(Hunan, China). HEK293 cells were cultured in 10 cm dishes using DMEM, and the cells were transfected with 15 μg pcDNA3.1-SARM[…]-C expression plasmid on the following day. Cells were collected 48 hours after transfection, and SARM1 protein expressed in the cells was obtained by digitonin lysis for in vitro activity assay experiments. The specific procedure was as follows: Cells were digested with trypsin-EDTA, then centrifuged at 1000 rpm for 5 minutes, washed once with PBS, and then resuspended in PBS containing 100 μM digitonin, with 0.6 mL PBS for the cells in per 10 cm dish, and lysed for 5 minutes. […] Then the supernatant containing SARM1 protein was collected by centrifugation at 5000 rpm for 10 minutes. […] A group without inhibitor was used as control group. All mixtures were incubated at room temperature for 10 minutes. Then, 50 μM NAD and 50 μM PC6 as substrates and 50 μM NMN as an activator were added to the SARM1 protein incubated with the inhibitor, and the reaction was carried out at room temperature for 30 minutes. The concentrations of each component were the final concentrations in the reaction system. […] Finally, the reaction rate was used to represent the protein activity and calculate the half-maximal inhibitory concentration.

Row | IC50 [2] [nM] | Structure (SMILES) | Degree of Protection Against Axonal Wallerian Degeneration [1]
1 | < 100 | O=C1C(Cc2ccc(Cl)cc2)CCN1c1ccc2c(c1)COc1cnccc1-2 (stereo not drawn) [Compound 1, 3-(4-chlorobenzyl)-1-(6H-isochromeno[3,4-c]pyridin-8-yl)pyrrolidin-2-one] | A (substantial protection (A) >50%)
2 | 100 to 1000 | O=C1C(Cc2ccccc2)CCN1c1ccc2c(c1)COc1cnccc1-2 (stereo not drawn) [Compound 2, 3-benzyl-1-(6H-isochromeno[3,4-c]pyridin-8-yl)pyrrolidin-2-one] | A (substantial protection (A) >50%)
3 | 1000 to 10000 | O=C1C(Cc2ccc(Cl)cc2F)CCN1c1ccc2c(c1)COc1cnccc1-2 (stereo not drawn) [Compound 3] | –
4 | 100 to 1000 | O=C1C(Cc2cc(F)cc(F)c2)CCN1c1ccc2c(c1)COc1cnccc1-2 (stereo not drawn) [Compound 4] | A (substantial protection (A) >50%)
5 | 1000 to 10000 | O=C1C(Cc2cc(F)c(F)c(F)c2)CCN1c1ccc2c(c1)COc1cnccc1-2 (stereo not drawn) [Compound 5] | A (substantial protection (A) >50%)
6 | 1000 to 10000 | O=C1C(Cc2ccc(Cl)s2)CCN1c1ccc2c(c1)COc1cnccc1-2 (stereo not drawn) [Compound 7] | A (substantial protection (A) >50%)
7 | 1000 to 10000 | Cc1ccc(CC2CCN(c3ccc4c(c3)COc3cnccc3-4)C2=O)cc1 (stereo not drawn) [Compound 8] | –
8 | 1000 to 10000 | O=C1C(Cc2cccc(Cl)c2)CCN1c1ccc2c(c1)COc1cnccc1-2 (stereo not drawn) [Compound 9] | A (substantial protection (A) >50%)
9 | < 100 | O=C1C(Cc2ccc(F)cc2)CCN1c1ccc2c(c1)COc1cnccc1-2 (stereo not drawn) [Compound 10, 3-(4-fluorobenzyl)-1-(6H-isochromeno[3,4-c]pyridin-8-yl)pyrrolidin-2-one] | A (substantial protection (A) >50%)
10 | 1000 to 10000 | O=C1C(Cc2ccc(F)cc2F)CCN1c1ccc2c(c1)COc1cnccc1-2 (stereo not drawn) [Compound 11] | A (substantial protection (A) >50%)
11 | 100 to 1000 | O=C1C(Cc2ccc(Cl)o2)CCN1c1ccc2c(c1)COc1cnccc1-2 (stereo not drawn) [Compound 12] | B (partial protection (B): 20% to 50%)
12 | 1000 to 10000 | O=C1C(Cc2ccc(C(F)(F)F)cc2)CCN1c1ccc2c(c1)COc1cnccc1-2 (stereo not drawn) [Compound 14] | –
13 | 1000 to 10000 | N#Cc1ccc(CC2CCN(c3ccc4c(c3)COc3cnccc3-4)C2=O)cc1 (stereo not drawn) [Compound 16] | A (substantial protection (A) >50%)
14 | 100 to 1000 | O=C1C(Cc2ccc(Cl)nc2)CCN1c1ccc2c(c1)COc1cnccc1-2 (stereo not drawn) [Compound 17] | B (partial protection (B): 20% to 50%)
15 | 1000 to 10000 | O=C1C(Cc2cc(F)c(Cl)c(F)c2)CCN1c1ccc2c(c1)COc1cnccc1-2 (stereo not drawn) [Compound 18] | B (partial protection (B): 20% to 50%)
16 | < 100 | O=C(CCc1ccc2c(c1)OCO2)Nc1ccc2c(c1)COc1cnccc1-2 [Compound 20] | –
17 | 1000 to 10000 | O=C(CCc1ccc([N+](=O)[O-])cc1)Nc1ccc2c(c1)COc1cnccc1-2 [Compound 23] | –
18 | 100 to 1000 | O=C(CCc1ccc(OC(F)(F)F)cc1)Nc1ccc2c(c1)COc1cnccc1-2 [Compound 24] | –
19 | < 100 | O=C(CCc1ccc(Cl)nc1)Nc1ccc2c(c1)COc1cnccc1-2 [Compound 26] | –
20 | < 100 | O=C(CCc1cccc(Cl)c1)Nc1ccc2c(c1)COc1cnccc1-2 [Compound 31] | –
21 | 100 to 1000 | O=C(Nc1ccc2c(c1)COc1cnccc1-2)C(F)Cc1ccc(Cl)cc1 (stereo not drawn) [Compound 35] | –
22 | < 100 | O=C(CCc1ccccc1)Nc1ccc2c(c1)COc1cnccc1-2 [Compound 38] | –
23 | < 100 | O=C(CCc1cc(F)c(Cl)c(F)c1)Nc1ccc2c(c1)COc1cnccc1-2 [Compound 43] | –

Row | IC50 [2] [nM] | Structure (SMILES) | Degree of Protection Against Axonal Wallerian Degeneration [1]
24 | < 100 | N#Cc1c(F)cc(CCC(=O)Nc2ccc3c(c2)COc2cnccc2-3)cc1F [Compound 44] | –
25 | 100 to 1000 | O=C(NCc1cc(F)cc(F)c1)Nc1ccc2c(c1)COc1cnccc1-2 [Compound 48] | –
26 | 1000 to 10000 | CN(C(=O)CCc1ccc(F)cc1)c1ccc2c(c1)COc1cnccc1-2 [Compound 49, 3-(4-fluorophenyl)-N-(6H-isochromeno[3,4-c]pyridin-8-yl)-N-methylpropanamide] | –
27 | 1000 to 10000 | O=C(Cc1ccc(F)cc1)Nc1ccc2c(c1)COc1cnccc1-2 [Compound 51] | –
28 | 100 to 1000 | NC(Cc1ccc(F)cc1)C(=O)Nc1ccc2c(c1)COc1cnccc1-2 (stereo not drawn) [Compound 52, 2-amino-3-(4-fluorophenyl)-N-(6H-isochromeno[3,4-c]pyridin-8-yl)propanamide] | –
29 | 1000 to 10000 | O=C1C(Cc2ccc(F)cc2)CCN1c1ccc2c(c1)COCc1cnccc1-2 (stereo not drawn) [Compound 53, 1-(5,7-dihydrobenzo[5,6]oxepino[3,4-c]pyridin-9-yl)-3-(4-fluorobenzyl)pyrrolidin-2-one] | –
30 | 100 to 1000 | O=C1C(Cc2ccc3ocnc3c2)CCN1c1ccc2c(c1)COc1cnccc1-2 (stereo not drawn) [Compound 61] | –
31 | 1000 to 10000 | O=C(NCc1ccc2c(c1)OCO2)Nc1ccc2c(c1)COc1cnccc1-2 [Compound 64] | –
32 | 100 to 1000 | O=C(NCc1ccc(Cl)nc1)Nc1ccc2c(c1)COc1cnccc1-2 [Compound 66] | –
33 | 1000 to 10000 | O=C(NCc1cccc(Cl)c1)Nc1ccc2c(c1)COc1cnccc1-2 [Compound 69] | –
34 | 1000 to 10000 | CN(C)c1ccc(CCC(=O)Nc2ccc3c(c2)COc2cnccc2-3)cc1 [Compound 79] | –
35 | 1000 to 10000 | O=C(CCc1ccc2ccccc2c1)Nc1ccc2c(c1)COc1cnccc1-2 [Compound 81] | –
36 | 1000 to 10000 | O=C(CCc1cccc2ccccc12)Nc1ccc2c(c1)COc1cnccc1-2 [Compound 82] | –
37 | 100 to 1000 | O=C(CCc1ccc2c(c1)CCO2)Nc1ccc2c(c1)COc1cnccc1-2 [Compound 83] | –
38 | 1000 to 10000 | Cc1c(NC(=O)CCc2ccc(F)cc2)ccc2c1COc1cnccc1-2 [Compound 131, 3-(4-fluorophenyl)-N-(7-methyl-6H-isochromeno[3,4-c]pyridin-8-yl)propanamide] | –
39 | 1000 to 10000 | CC(C)c1cncc2c1-c1ccc(NC(=O)CCc3ccc(F)cc3)cc1CO2 [Compound 141] | –
40 | < 100 | C#Cc1ccc(CCC(=O)Nc2ccc3c(c2)COc2cnccc2-3)cc1 [Compound 148] | –
41 | 1000 to 10000 | C=Cc1ccc(CC2CCN(c3ccc4c(c3)COc3cnccc3-4)C2=O)cc1 (stereo not drawn) [Compound 149] | –
42 | < 100 | O=C1N(Cc2ccc(F)cc2)CCN1c1ccc2c(c1)COc1cnccc1-2 [Compound 150] | –
43 | < 100 | CN(Cc1ccc(F)cc1)C(=O)Nc1cnc2c(c1)COc1cnccc1-2 [Compound 153] | –
44 | < 100 | O=C1[C@H](Cc2ccc(F)cc2)CCN1c1ccc2c(c1)COc1cnccc1-2 [Compound 154] | –
45 | < 100 | O=C1[C@@H](Cc2ccc(F)cc2)CCN1c1ccc2c(c1)COc1cnccc1-2 [Compound 155] | –

Source: patent EP4782449A1, “TRICYCLIC PYRIDINE COMPOUND ACTING AS SARM1 ENZYME ACTIVITY INHIBITOR, AND USE THEREOF” (Artivila (ShenZhen) Innovation Center, Ltd., priority 2023, dated 2025)
